# Molecular target: LSD-1 enzyme (Homo sapiens (Human), UniProt O60341)
# Protocol: LSD1 Histone Demethylase Biochemical Assay
# LANCE LSD1/KDM1A demethylase assay-10 μL of 1 nM LSD-1 enzyme (ENZO BML-SE544-0050) in the assay buffer (50 mM Tris, pH 7.5, 0.01% Tween-20, 25 mM NaCl, 5 mM DTT) were preincubated for 1 hour at 25° C. with 0.8 μL compound/DMSO dotted in black 384 well polystyrene plates. […] After stopping the reactions plates were incubated for 30 minutes and read on a PHERAstar FS plate reader (BMG Labtech).
row,Structure (SMILES),IC50 [nM]
1,"COCC1(CN[C@@H]2C[C@H]2c2ccccc2)CCN(C(=O)c2ccc(N)nn2)CC1 [Example 40, 6-{[4-(methoxymethyl)-4-({[(1R,2S)-2-phenylcyclopropyl]amino}methyl)piperidin-1-yl]carbonyl}pyridazin-3-amine]",< 100
2,"COCC1(CN[C@@H]2C[C@H]2c2ccccc2)CCN(C(=O)C2CCN(C)CC2)CC1 [Example 41, (1R,2S)—N-({4-(methoxymethyl)-1-[(1-methylpiperidin-4-yl)carbonyl]piperidin-4-yl}methyl)-2-phenylcyclopropanamine]",< 100
3,"COCC1(CN[C@@H]2C[C@H]2c2ccccc2)CCN(C(=O)c2ccn(C)n2)CC1 [Example 42, (1R,2S)—N-({4-(methoxymethyl)-1-[(1-methyl-1H-pyrazol-3-yl)carbonyl]piperidin-4-yl}methyl)-2-phenylcyclopropanamine]",< 100
4,"COCC1(CN[C@@H]2C[C@H]2c2ccccc2)CCN(C(=O)N2CCN(C)CC2)CC1 [Example 43, (1R,2S)—N-({4-(methoxymethyl)-1-[(4-methylpiperazin-1-yl)carbonyl]piperidin-4-yl}methyl)-2-phenylcyclopropanamine]",< 100
5,"CC1(CN[C@@H]2C[C@H]2c2ccccc2)CCN(CC2(C(=O)O)CC2)CC1 [Example 44, 1-{[4-methyl-4-({[(1R,2S)-2-phenylcyclopropyl]amino}methyl)piperidin-1-yl]methyl}cyclopropanecarboxylic acid]",< 100
6,"CC1(CN[C@@H]2C[C@H]2c2ccccc2)CCN(CC2(C(=O)O)CCC2)CC1 [Example 45, 1-{[4-methyl-4-({[(1R,2S)-2-phenylcyclopropyl]amino}methyl)piperidin-1-yl]methyl}cyclobutanecarboxylic acid]",< 100
7,"Cn1ccc(C(=O)N2CCC(C)(CN[C@@H]3C[C@H]3c3ccccc3)CC2)n1 [Example 46, (1R,2S)—N-({4-methyl-1-[(1-methyl-1H-pyrazol-3-yl)carbonyl]piperidin-4-yl}methyl)-2-phenylcyclopropanamine]",< 100
8,"Cn1cnc(C(=O)N2CCC(C)(CN[C@@H]3C[C@H]3c3ccccc3)CC2)c1 [Example 47, (1R,2S)—N-({4-methyl-1-[(1-methyl-1H-imidazol-4-yl)carbonyl]piperidin-4-yl}methyl)-2-phenylcyclopropanamine]",< 100
9,"CC1(CN[C@@H]2C[C@H]2c2ccccc2)CCN(C(=O)c2cnc(N)nc2)CC1 [Example 48, 5-{[4-methyl-4-({[(1R,2S)-2-phenylcyclopropyl]amino}methyl)piperidin-1-yl]carbonyl}pyrimidin-2-amine]",< 100
10,"CC1(CN[C@@H]2C[C@H]2c2ccccc2)CCN(C(=O)c2ccc(N)nn2)CC1 [Example 49, 6-{[4-methyl-4-({[(1R,2S)-2-phenylcyclopropyl]amino}methyl)piperidin-1-yl]carbonyl}pyridazin-3-amine]",< 100
11,"CC1(CN[C@@H]2C[C@H]2c2ccccc2)CCN(C(=O)c2c[nH]nc2N)CC1 [Example 50, 4-{[4-methyl-4-({[(1R,2S)-2-phenylcyclopropyl]amino}methyl)piperidin-1-yl]carbonyl}-1H-pyrazol-3-amine]",< 100
12,"CC1(CN[C@@H]2C[C@H]2c2ccccc2)CCN(C(=O)C2(N)CCCC2)CC1 [Example 51, 1-{[4-methyl-4-({[(1R,2S)-2-phenylcyclopropyl]amino}methyl)piperidin-1-yl]carbonyl}cyclopentanamine]",< 100
13,"CC1(CN[C@@H]2C[C@H]2c2ccccc2)CCN(Cc2cnc(N)nc2)CC1 [Example 52, 5-{[4-methyl-4-({[(1R,2S)-2-phenylcyclopropyl]amino}methyl)piperidin-1-yl]methyl}pyrimidin-2-amine]",< 100
14,"N#CCc1ccc(CC2(CN[C@@H]3C[C@H]3c3ccccc3)CCN(CC3(C(=O)O)CC3)CC2)cc1 [Example 53, 1-{[4-[4-(cyanomethyl)benzyl]-4-({[(1R,2S)-2-phenylcyclopropyl]amino}methyl)piperidin-1-yl]methyl}cyclopropanecarboxylic acid]",< 100
15,"N#CCc1ccc(CC2(CN[C@@H]3C[C@H]3c3ccccc3)CCN(CC3(C(=O)O)CCC3)CC2)cc1 [Example 54, 1-{[4-[4-(cyanomethyl)benzyl]-4-({[(1R,2S)-2-phenylcyclopropyl]amino}methyl)piperidin-1-yl]methyl}cyclobutanecarboxylic acid]",< 100
16,"N#Cc1ccc(CC2(CN[C@@H]3C[C@H]3c3ccccc3)CCN(CC3(C(=O)O)CC3)CC2)cc1 [Example 55, 1-{[4-(4-cyanobenzyl)-4-({[(1R,2S)-2-phenylcyclopropyl]amino}methyl)piperidin-1-yl]methyl}cyclopropanecarboxylic acid]",< 100
17,"N#Cc1cccc(CC2(CN[C@@H]3C[C@H]3c3ccccc3)CCN(CC3(C(=O)O)CC3)CC2)c1 [Example 56, 1-{[4-(3-cyanobenzyl)-4-({[(1R,2S)-2-phenylcyclopropyl]amino}methyl)piperidin-1-yl]methyl}cyclopropanecarboxylic acid]",< 100

row,Structure (SMILES),IC50 [nM]
1,"N#Cc1cccc(CC2(CN[C@@H]3C[C@H]3c3ccccc3)CCN(CC3(C(=O)O)CCC3)CC2)c1 [Example 57, 1-{[4-(3-cyanobenzyl)-4-({[(1R,2S)-2-phenylcyclopropyl]amino}methyl)piperidin-1-yl]methyl}cyclobutanecarboxylic acid]",< 100
2,"N#Cc1cccc(CC2(CN[C@@H]3C[C@H]3c3ccccc3)CCN(C[C@H]3CC[C@H](C(=O)O)CC3)CC2)c1 [Example 58, trans-4-{[4-(3-cyanobenzyl)-4-({[(1R,2S)-2-phenylcyclopropyl]amino}methyl)piperidin-1-yl]methyl}cyclohexanecarboxylic acid]",< 100
3,"COc1cccc(CN2CCC(CN[C@@H]3C[C@H]3c3ccccc3)(Cc3cccc(C(=O)O)c3)CC2)c1 [Example 59, 3-{[1-(3-methoxybenzyl)-4-({[(1R,2S)-2-phenylcyclopropyl]amino}methyl)piperidin-4-yl]methyl}benzoic acid]",< 100
4,"COCC1(CN[C@@H]2C[C@H]2c2ccccc2)CCN(C(=O)N2CC[C@@H](O)C2)CC1 [Example 60, (3R)-1-{[4-(methoxymethyl)-4-({[(1R,2S)-2-phenylcyclopropyl]amino}methyl)piperidin-1-yl]carbonyl}pyrrolidin-3-ol]",< 100
5,"COCC1(CN[C@@H]2C[C@H]2c2ccccc2)CCN(C(=O)N2CC[C@H](O)C2)CC1 [Example 61, (3S)-1-{[4-(methoxymethyl)-4-({[(1R,2S)-2-phenylcyclopropyl]amino}methyl)piperidin-1-yl]carbonyl}pyrrolidin-3-ol]",< 100
6,"COCC1(CN[C@@H]2C[C@H]2c2ccccc2)CCN(Cc2ccc(C(=O)O)cc2)CC1 [Example 62, 4-{[4-(methoxymethyl)-4-({[(1R,2S)-2-phenylcyclopropyl]amino}methyl)piperidin-1-yl]methyl}benzoic acid]",< 100
7,"COCC1(CN[C@@H]2C[C@H]2c2ccc(F)cc2)CCN(CC2(C(=O)O)CCC2)CC1 [Example 63, 1-{[4-({[(1R,2S)-2-(4-fluorophenyl)cyclopropyl]amino}methyl)-4-(methoxymethyl)piperidin-1-yl]methyl}cyclobutanecarboxylic acid]",< 100
8,"COCC1(CN[C@@H]2C[C@H]2c2ccccc2F)CCN(CC2(C(=O)O)CCC2)CC1 [Example 64, 1-{[4-({[(1R,2S)-2-(2-fluorophenyl)cyclopropyl]amino}methyl)-4-(methoxymethyl)piperidin-1-yl]methyl}cyclobutanecarboxylic acid]",< 100
9,"COCC1(CN[C@@H]2C[C@H]2c2ccc(F)c(F)c2)CCN(CC2(C(=O)O)CCC2)CC1 [Example 65, 1-{[4-({[(1R,2S)-2-(3,4-difluorophenyl)cyclopropyl]amino}methyl)-4-(methoxymethyl)piperidin-1-yl]methyl}cyclobutanecarboxylic acid]",< 100
10,"COCC1(CNC2CC2c2ccccc2OC)CCN(CC2(C(=O)O)CCC2)CC1 (stereo not drawn) [Example 66, 1-{[4-(methoxymethyl)-4-({[2-(2-methoxyphenyl)cyclopropyl]amino}methyl)piperidin-1-yl]methyl}cyclobutanecarboxylic acid]",< 100
11,"COCC1(CNC2CC2c2ccc(OC)cc2)CCN(CC2(C(=O)O)CCC2)CC1 (stereo not drawn) [Example 67, 1-{[4-(methoxymethyl)-4-({[2-(4-methoxyphenyl)cyclopropyl]amino}methyl)piperidin-1-yl]methyl}cyclobutanecarboxylic acid]",< 100
12,"COCC1(C(C)N[C@@H]2C[C@H]2c2ccccc2)CCN(CC2(C(=O)O)CCC2)CC1 (stereo partly drawn) [Example 68, 1-{[4-(methoxymethyl)-4-(1-{[(1R,2S)-2-phenylcyclopropyl]amino}ethyl)piperidin-1-yl]methyl}cyclobutanecarboxylic acid]",< 100
13,"COc1ccc(CC2(CN[C@@H]3C[C@H]3c3ccccc3)CCN(CC3(C(=O)O)CC3)CC2)cn1 [Example 69, 1-{[4-[(6-methoxypyridin-3-yl)methyl]-4-({[(1R,2S)-2-phenylcyclopropyl]amino}methyl)piperidin-1-yl]methyl}cyclopropanecarboxylic acid]",< 100
14,"CCOCC1(CN[C@@H]2C[C@H]2c2ccccc2)CCN(CC2(C(=O)O)CC2)CC1 [Example 70, 1-{[4-(ethoxymethyl)-4-({[(1R,2S)-2-phenylcyclopropyl]amino}methyl)piperidin-1-yl]methyl}cyclopropanecarboxylic acid]",< 100
15,"CCOCC1(CN[C@@H]2C[C@H]2c2ccccc2)CCN(CC2(C(=O)O)CCC2)CC1 [Example 71, 1-{[4-(ethoxymethyl)-4-({[(1R,2S)-2-phenylcyclopropyl]amino}methyl)piperidin-1-yl]methyl}cyclobutanecarboxylic acid]",< 100
16,"O=C(O)C1(CN2CCC(CN[C@@H]3C[C@H]3c3ccccc3)(COCc3ccccc3)CC2)CC1 [Example 72, 1-{[4-[(benzyloxy)methyl]-4-({[(1R,2S)-2-phenylcyclopropyl]amino}methyl)piperidin-1-yl]methyl}cyclopropanecarboxylic acid]",< 100

# Source: patent US9670210B2, “Cyclopropylamines as LSD1 inhibitors” (Incyte Corporation, priority 2014, dated 2017)
